Earlier results on one compound are cited in US20250049677A1, “Oxa-Macrocyclic Musk as Fragrance Compounds” (Symrise AG, priority 2021, published 2025).

The conditions of series [1]: background statement on prior art.
For series [2] the following is noted: background statement on prior art. This is another data set of the same source.

On to `C[C@@H]1CCCCCCCCCCCCC(=O)C1` [Muscone, (R)-3-methylcyclopentadecanone], for which the Solubility in water result in series [1] is “only very slightly soluble in water”. Moreover, the Biodegradability entry in series [2] is given as “badly biodegradable”.
